{"source": "patent US20080305186A1", "about": "“Method and Composition for the Treatment of Cardiac Hypertrophy” (BOARD OF REGENTS, THE UNIVERSITY OF TEXAS SYSTEM, priority 2007, published 2008)", "system": "cardiac gene expression", "test": "Microarray analysis of cardiac gene expression (GeneChip Mouse Genome 430 2.0)", "assay_type": "in vivo, mice", "settings": "for FC Transglutaminase 2, C polypeptide (Tgm2): CH vs normal FC 2.0", "description": "Microarray Sample Preparation and Analysis. Animal hearts were rapidly removed, and the atria and right ventricles were cut and immediately plunged into TRIzol Reagent (Life Technologies). Total RNA was isolated following the manufacturer's instructions, purified by phenol-chloroform extraction and then ethanol precipitation, and 20 μg further processed for microarray analysis. Briefly, cDNA synthesis, in vitro transcription, and labeling and fragmentation to produce the oligonucleotide probes were performed as instructed by the GeneChip manufacturer (Affymetrix). The probes were first hybridized to a test array (Affymetrix) and then to the GeneChip Mouse Genome 430 2.0 Array, using the GeneChip Hybridization Oven 640. The chips were washed in a GeneChip Fluidics Station 450 (Affymetrix), and the results were visualized with a GeneChip G7 scanner (Affymetrix). RMA normalization, pairwise comparisons, Student's t test and Benjamini and Hochberg correction were subsequently performed using GeneSifter (VizX Labs, Seattle, Wash.) and Spotfire DecisionSite 8.3 (Spotfire, Inc., Somerville, Mass.).\nEffects on Gene Expression Profile. […] One mouse heart was used for each array, and was performed in triplicate, generating a total of 12 arrays. GeneSifter was used to perform RMA normalization, pairwise comparisons of averaged signal intensity values, and Student's t-test with Benjamini and Hochberg correction, and Spotfire was used to perform pairwise comparisons. […] Additionally, genes that were altered between any two N or cardiac hypertrophy samples were removed, as these alterations most likely represented normal variations between mice.", "data": [{"smiles": "C[C@H]1c2cccc(O)c2C(=O)C2=C(O)[C@]3(O)C(=O)C(C(N)=O)=C(O)[C@@H](N(C)C)[C@@H]3[C@@H](O)[C@@H]21", "note": "[doxycycline]", "values": [{"measurement": "FC IBR domain containing 2 (Ibrdc2)", "setting": "GenBank AV274826, vs mice given only isoproterenol", "result": "−2.1"}, {"measurement": "FC Xanthine dehydrogenase (Xdh)", "setting": "GenBank AV286265, heart, drug + isoproterenol vs isoproterenol-only mice, CH vs normal FC 3.9", "result": "−3.0", "unit": "fold"}, {"measurement": "FC UDP-N-acetyl-alpha-D-galactosamine:polypeptide N-acetylgalactosaminyltransferase-like 2 (Galntl2)", "setting": "GenBank AV290688, heart, drug + isoproterenol vs isoproterenol-only mice, CH vs normal FC 3.3", "result": "−2.8", "unit": "fold"}, {"measurement": "FC Ras association (RalGDS/AF-6) domain family 4 (Neuropeptide signaling)", "setting": "GenBank AV291679, vs mice given only isoproterenol", "result": "−2.2"}, {"measurement": "FC Syntaxin 3 (Stx3)", "setting": "GenBank AV296217, vs mice given only isoproterenol", "result": "−1.6"}, {"measurement": "FC EST", "setting": "GenBank AV318727, vs mice given only isoproterenol", "result": 2.6}, {"measurement": "FC F-box-WD40 repeat protein 6 (Fbxw6)", "setting": "GenBank AV338062, vs mice given only isoproterenol", "result": 1.9}, {"measurement": "FC EST", "setting": "GenBank AW123929, vs mice given only isoproterenol", "result": "−1.8"}, {"measurement": "FC EST", "setting": "GenBank AW208574, vs mice given only isoproterenol", "result": "−1.9"}, {"measurement": "FC Myristoylated alanine rich protein kinase C substrate (Marcks)", "setting": "GenBank AW546141, vs mice given only isoproterenol", "result": 1.7}, {"measurement": "FC Transmembrane protein 23 (Tmem23)", "setting": "GenBank AW985925, heart, drug + isoproterenol vs isoproterenol-only mice, CH vs normal FC 2.8", "result": "−2.1", "unit": "fold"}, {"measurement": "FC Nuclear factor, interleukin 3, regulated (Nfil3)", "setting": "GenBank AY061760, vs mice given only isoproterenol", "result": "−2.5"}, {"measurement": "FC RasGEF domain family, member 1B (Rasgef1b)", "setting": "GenBank BB003229, vs mice given only isoproterenol", "result": "−2.4"}, {"measurement": "FC Transglutaminase 2, C polypeptide (Tgm2)", "setting": "GenBank BB041811, heart, drug + isoproterenol vs isoproterenol-only mice", "result": "−1.7", "unit": "fold"}, {"measurement": "FC EST", "setting": "GenBank BB069531, vs mice given only isoproterenol", "result": 2.1}, {"measurement": "FC G protein-coupled receptor 116 (Gprl16)", "setting": "GenBank BB083808, vs mice given only isoproterenol", "result": "−2.0"}, {"measurement": "FC EST", "setting": "GenBank BB096843, vs mice given only isoproterenol", "result": "−1.8"}, {"measurement": "FC RAN binding protein 9 (Ranbp9)", "setting": "GenBank BB106402, vs mice given only isoproterenol", "result": "−2.6"}, {"measurement": "FC EST", "setting": "GenBank BB109391, vs mice given only isoproterenol", "result": "−1.8"}, {"measurement": "FC Tumorsuppressor St7-like (St7l)", "setting": "GenBank BB122084, heart, drug + isoproterenol vs isoproterenol-only mice, CH vs normal FC 2.3", "result": "−2.1", "unit": "fold"}, {"measurement": "FC Kyphoscoliosis peptidase (Ky)", "setting": "GenBank BB126077, vs mice given only isoproterenol", "result": 1.8}, {"measurement": "FC EST", "setting": "GenBank BB127176, vs mice given only isoproterenol", "result": "−1.7"}, {"measurement": "FC Endothelial differentiation sphingolipid G-protein-coupled receptor 1 (Edg1)", "setting": "GenBank BB133079, vs mice given only isoproterenol", "result": "−2.4"}, {"measurement": "FC Interferon induced transmembrane protein 6 (Ifitm6)", "setting": "GenBank BB193024, vs mice given only isoproterenol", "result": "−3.3"}, {"measurement": "FC RAS, dexamethasone-induced 1 (Rasd1)", "setting": "GenBank BB217136, vs mice given only isoproterenol", "result": "−3.3"}, {"measurement": "FC EST", "setting": "GenBank BB219003, vs mice given only isoproterenol", "result": "−2.1"}, {"measurement": "FC Inner membrane protein, mitochondrial (Immt)", "setting": "GenBank BB222675, vs mice given only isoproterenol", "result": 4.9}, {"measurement": "FC EST", "setting": "GenBank BB236747, vs mice given only isoproterenol", "result": "−1.7"}, {"measurement": "FC Procollagen-proline, 2-oxoglutarate 4-dioxygenase (proline 4-hydroxylase), alpha 1 polypeptide (P4ha1)", "setting": "GenBank BB253720, vs mice given only isoproterenol", "result": 1.9}, {"measurement": "FC MAD homolog 1 (Smad1)", "setting": "GenBank BB257769, vs mice given only isoproterenol", "result": "−1.9"}, {"measurement": "FC EST", "setting": "GenBank BB312992, vs mice given only isoproterenol", "result": "−2.1"}, {"measurement": "FC Zi finger and BTB domain containing 16 (Zbtb16)", "setting": "GenBank BB326368, heart, drug + isoproterenol vs isoproterenol-only mice, CH vs normal FC 5.1", "result": "−1.8", "unit": "fold"}, {"measurement": "FC Kelch-like 24 (Khl24)", "setting": "GenBank BB328076, vs mice given only isoproterenol", "result": "−2.2"}, {"measurement": "FC Tissue inhibitor of metalloproteinase 4 (Timp4)", "setting": "GenBank BB328405, heart, drug + isoproterenol vs isoproterenol-only mice, CH vs normal FC 5.6", "result": "−2.8", "unit": "fold"}, {"measurement": "FC Leucine-rich repeat-containing 8c (Lrrc8c)", "setting": "GenBank BB333759, vs mice given only isoproterenol", "result": "−1.7"}, {"measurement": "FC EST", "setting": "GenBank BB335101, vs mice given only isoproterenol", "result": 2.2}, {"measurement": "FC Insulin receptor substrate 1 (Irs1)", "setting": "GenBank BB345784, vs mice given only isoproterenol", "result": "−1.7"}, {"measurement": "FC Tribbles homolog 2 (Trib2)", "setting": "GenBank BB354684, heart, drug + isoproterenol vs isoproterenol-only mice, CH vs normal FC −1.9", "result": 1.6, "unit": "fold"}, {"measurement": "FC EST", "setting": "GenBank BB374879, vs mice given only isoproterenol", "result": 2.7}, {"measurement": "FC Transcription factor Dp 2 (Tfdp2)", "setting": "GenBank BB405795, heart, drug + isoproterenol vs isoproterenol-only mice, CH vs normal FC 2.8", "result": "−2.2", "unit": "fold"}, {"measurement": "FC Inositol 1,4,5-trisphosphate 3-kinase B (Itpkb)", "setting": "GenBank BB434111, vs mice given only isoproterenol", "result": 2.5}, {"measurement": "FC EST", "setting": "GenBank BB476794, vs mice given only isoproterenol", "result": 1.9}, {"measurement": "FC Histone 1, H1e (Hist1h2be)", "setting": "GenBank BB490701, vs mice given only isoproterenol", "result": "−1.7"}, {"measurement": "FC RNA, U22 small nucleolar", "setting": "GenBank BB493265, vs mice given only isoproterenol", "result": "−1.8"}, {"measurement": "FC F-box and leucine-rich repeat protein 13 (Fbxl13)", "setting": "GenBank BB503935, vs mice given only isoproterenol", "result": 1.9}, {"measurement": "FC OTU domain, ubiquitin aldehyde binding 1 (Otub1)", "setting": "GenBank BB534069, vs mice given only isoproterenol", "result": 2.0}, {"measurement": "FC EST", "setting": "GenBank BB535847, vs mice given only isoproterenol", "result": "−2.0"}, {"measurement": "FC Transglutaminase 2, C polypeptide (Tgm2)", "setting": "GenBank BB550124, heart, drug + isoproterenol vs isoproterenol-only mice", "result": "−1.7", "unit": "fold"}, {"measurement": "FC Von Willebrand factor homolog (Vwf)", "setting": "GenBank BB667216, heart, drug + isoproterenol vs isoproterenol-only mice, CH vs normal FC 2.3", "result": "−1.7", "unit": "fold"}, {"measurement": "FC Dehydrogenase E1 and transketolase domain containing 1 (Dhtkd1)", "setting": "GenBank BB667395, vs mice given only isoproterenol", "result": "−2.1"}, {"measurement": "FC Fibroblast growth factor receptor 3 (Fgfr3)", "setting": "GenBank BB732903, vs mice given only isoproterenol", "result": "−2.1"}, {"measurement": "FC Period homolog 3 (Per3)", "setting": "GenBank BB757992, vs mice given only isoproterenol", "result": 2.3}, {"measurement": "FC Serine palmitoyltransferase, long chain base subunit 2 (Sptlc2)", "setting": "GenBank BB794710, vs mice given only isoproterenol", "result": "−2.1"}, {"measurement": "FC Nucleoplasmin 3 (Npm3)", "setting": "GenBank BB811478, vs mice given only isoproterenol", "result": 2.1}, {"measurement": "FC Heterogeneous nuclear ribonucleoprotein R (Hnrpr)", "setting": "GenBank BB822465, vs mice given only isoproterenol", "result": 1.8}, {"measurement": "FC Integrator complex subunit 3 (Ints3)", "setting": "GenBank BC003209, vs mice given only isoproterenol", "result": "−2.2"}, {"measurement": "FC Solute carrier family 39 (iron-regulated transporter), member 1 (Slc40a1)", "setting": "GenBank BC003438, vs mice given only isoproterenol", "result": "−2.1"}, {"measurement": "FC Transforming, acidic coiled-coil containing protein 2 (Tacc2)", "setting": "GenBank BC004057, heart, drug + isoproterenol vs isoproterenol-only mice, CH vs normal FC 2.8", "result": "−2.1", "unit": "fold"}, {"measurement": "FC Lutheran blood group (Auberger b antigen iluded) (Bcam)", "setting": "GenBank BC004826, vs mice given only isoproterenol", "result": 1.6}, {"measurement": "FC Tubulin, beta 2c (Tubb2c)", "setting": "GenBank BC005547, heart, drug + isoproterenol vs isoproterenol-only mice, CH vs normal FC −1.7", "result": 2.5, "unit": "fold"}]}]}
